One compound from paper PMC10439952, “JT002, a small molecule inhibitor of the NLRP3 inflammasome for the treatment of autoinflammatory disorders” (Scientific Reports, 2023) can be followed below.

Entries after “also recorded” stand apart in the source; their conditions may differ.

One data set can be described thus: Lipophilicity comparison. Type of data set: physicochemical. Conditions: compared with MCC950.
Another data set addresses NLRP3 inflammasome (Mus musculus, UniProt Q8R4B8). Briefly: In vivo target engagement: ex vivo LPS + ATP stimulated IL-1β production in blood of orally dosed mice. Conditions: single oral dose 25 mg/kg. The protocol: (§1) In vivo pharmacodynamics (PD) were evaluated in mice for determination of target engagement as this species is routinely used for assessment of preclinical efficacy. Treatment of fresh, whole blood with LPS plus ATP results in the NLRP3-dependent release of IL-1β, thus providing a robust method for tracking target engagement of NLRP3 inflammasome inhibitors in the circulation after oral dose administration[36],[47]. In vivo target engagement using ex vivo stimulation of blood was evaluated in mice at various times after oral dosing of JT002. For each time point tested, one group of mice received a single oral dose of 25 mg/kg JT002 (n = 8/group) and another group received the vehicle control (n = 8/group). At the time of harvest, blood was collected from each animal and an aliquot removed and processed to plasma for determination of JT002 concentrations. The remaining blood was stimulated ex vivo with LPS plus ATP followed by analysis of IL-1β concentrations (Fig. 3A). […] Consistent with these findings, plasma concentrations of JT002 decreased over time, with mean concentrations of ≥ 4.0 µM through 8 h and a mean concentration of 6 nM at the 24-h sampling (Fig. 3C,D). […]

Data set [1] can be described thus: Plasma JT002 concentrations in mice after a single oral dose. The class given is in vivo, mouse. Conditions: single oral dose 25 mg/kg. The protocol:
as §1

For data set [2], the system named is ozone exposed C57BL6/J mice. Briefly: Murine model of ozone induced neutrophilic airway inflammation. The class given is in vivo, mouse. As for the experimental part: Four groups of 4 or 5 female C57BL6/J mice (The Jackson Laboratory, Bar Harbor, ME) at 8–12 weeks of age were housed under pathogen-free conditions and maintained on an ovalbumin-free diet. Mice were dosed orally with JT002 at 2.5 or 25 mg/kg once daily for 4 days. On the last day, 1-h post-dosing of test compound, mice were exposed to O3 at 1.0 ppm for 3 h in stainless steel wire cages set inside 240-L laminar flow inhalation chambers. O3 was generated by directing compressed medical-grade oxygen through an electrical discharge O3 generator (Sander Ozonizer, Model 25, Erwin Sander Elektroapparatebau GmbH, Uetze-Eltze, Germany) located upstream of the exposure chamber. Exposure to HEPA-filtered air was done in a separate chamber with age- and treatment-matched control animals.
Determination of airway hyperresponsiveness (AHR) AHR was assessed on Day 30 (iTreg model) or 3 h after the O3 exposure (ozone model) as a change in airway resistance (cm H2O/mL/s) after challenge with aerosolized methacholine with using a whole body plethysmograph-based system (National Jewish Medical and Research Center, Denver, CO). Methacholine aerosol was administered by nebulization in increasing concentrations (12.5–100 mg/mL) and RL was continuously computed by fitting flow, volume, and pressure to an equation of motion (Labview, National Instruments, Dallas, TX). Bronchoalveolar Lavage Immediately after assessment of AHR, lungs were lavaged via the tracheal tube with 1 mL of Hanks’ balanced salt solution (Gibco, Grand Island, NY). Total cell numbers were counted. Differential cell counts for neutrophils and macrophages were performed in a blinded fashion by counting at least 200 cells on cytocentrifuged preparations (Model Cytospin 3, Shandon Ltd, Runcorn, UK) stained with Leukostat (Fisher Diagnostics, Fair Lawn, NJ). Cell-free BAL fluid was stored at − 80 °C until measurements of cytokine levels by ELISA (eBioscience, San Diego, CA) were performed. Blood Collection Immediately following AHR measurement, mice were euthanized by exsanguination and blood collected for serum. Samples were stored at − 80 °C for subsequent measurement of immunoglobulin levels by ELISA. Lung Histology After BAL collection, lungs were inflated through the trachea with 1 mL of 10% formalin, removed and fixed in 10% formalin by immersion. Blocks of the lung tissue were cut around the main bronchus and embedded in paraffin blocks. Tissue sections (5 μm) were affixed to glass slides, and the slides were deparaffinized and stained with H&E for qualitative analysis of inflammatory cell influx and epithelial desquamation.

The mark [3] stands for this setting: 2.5 mg/kg orally once daily for 4 days.
Setting [4] is: 25 mg/kg orally once daily for 4 days.

Sequence of NLRP3 inflammasome (Q8R4B8 whole entry): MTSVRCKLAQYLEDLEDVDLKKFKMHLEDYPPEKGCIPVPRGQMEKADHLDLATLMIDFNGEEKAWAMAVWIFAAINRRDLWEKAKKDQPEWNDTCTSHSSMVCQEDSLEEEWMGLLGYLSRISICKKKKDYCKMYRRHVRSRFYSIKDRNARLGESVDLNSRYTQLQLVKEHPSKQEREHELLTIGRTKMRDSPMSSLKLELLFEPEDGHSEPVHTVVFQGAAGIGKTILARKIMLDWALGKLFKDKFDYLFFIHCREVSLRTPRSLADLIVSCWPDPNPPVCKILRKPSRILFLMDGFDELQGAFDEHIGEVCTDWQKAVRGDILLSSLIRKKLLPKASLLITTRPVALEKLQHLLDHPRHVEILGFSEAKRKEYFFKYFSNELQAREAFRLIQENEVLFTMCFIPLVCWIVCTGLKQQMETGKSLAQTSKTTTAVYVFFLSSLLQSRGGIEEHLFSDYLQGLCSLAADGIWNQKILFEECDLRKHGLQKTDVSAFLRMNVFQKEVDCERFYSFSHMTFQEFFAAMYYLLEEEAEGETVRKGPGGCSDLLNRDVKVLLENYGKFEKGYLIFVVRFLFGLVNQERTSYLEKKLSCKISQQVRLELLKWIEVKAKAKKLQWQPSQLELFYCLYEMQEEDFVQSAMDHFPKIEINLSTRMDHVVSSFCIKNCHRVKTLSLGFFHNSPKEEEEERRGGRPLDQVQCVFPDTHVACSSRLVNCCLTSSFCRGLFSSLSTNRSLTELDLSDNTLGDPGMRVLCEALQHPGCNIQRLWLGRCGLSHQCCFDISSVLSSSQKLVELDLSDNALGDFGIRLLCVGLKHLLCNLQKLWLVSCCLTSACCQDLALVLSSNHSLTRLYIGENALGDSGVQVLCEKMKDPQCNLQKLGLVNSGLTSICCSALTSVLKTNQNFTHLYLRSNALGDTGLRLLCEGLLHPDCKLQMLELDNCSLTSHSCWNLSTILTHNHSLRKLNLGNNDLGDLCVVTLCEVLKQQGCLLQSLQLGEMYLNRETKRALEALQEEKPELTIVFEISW

In general, inhibition refers to the relative decrease from the control value, in per cent. On to `CO[C@@H]1COc2c(S(=O)(=O)NC(=O)Nc3c4c(cc5c3CCC5)CCC4)cnn2C1` [JT002], for which the lipophilicity entry in the data set “Lipophilicity comparison” is “lower lipophilicity than MCC950”. In addition, the inhibition at 25 mg/kg at NLRP3 inflammasome (mouse, 4- and 8-h post-dosing) is at least 97%. The “inhibition of ex vivo stimulated IL-1β production” value at NLRP3 inflammasome (24-h post-dosing, 25 mg/kg) is recorded as “no significant inhibition; also recorded: lack of inhibition”. In data set [1] (male, C57BL/6, mouse, plasma, 24-h sampling), this compound gave a concentration at 24 h of 6 nM. This compound also displayed a concentration at 24 h in data set [1] (through 8 h) of at least 4000 nM. Besides, in data set [2] (setting [3]), the AHR result is reported as “strong trend for reduction”, the BAL neutrophilia result is “no effect” and the “prevention of airway epithelial desquamation” value is on record as “strong trend”. In data set [2] (setting [4]), the “BAL fluid neutrophil numbers” value is “significantly reduced”, the “appearance of epithelial cells in the airway lumen” value was “visibly reduced”, the “number of epithelial cells in the BAL fluid” value is given as “no effect” and the “ozone-induced AHR” value is listed as “prevented ozone-induced AHR”.
